Measurements from patent US20250129430A1, “HIGH ATP-AFFINITY PROTEIN AS THERAPEUTIC TARGET FOR INTRACTABLE CANCER MOLECULAR SUBTYPES AND INHIBITOR THEREOF” (VeraVerse Co., Ltd., priority 2021, published 2025).

What was measured:
Type in all cases: cell-based, human
[1] = tested on: AGS; assay: Cell viability drug screen, 12-point dose-response AUC; conditions: 72 hours; for area under the viability curve (AUC), normalized: AGS cells, 12-point dose-response
How it was run: (§1)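 Each cell line receives a twelve-point half-log titration of drug beginning 24 h after plating 5×10^3 cells per well. Following 72 h culture at 37 °C, luminescent signal is recorded and expressed versus vehicle. AUC is derived by the trapezoidal method.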

[2] = tested on: Hs746T; assay: as above; conditions: 72 hours; for area under the viability curve (AUC), normalized: Hs746T cells, 12-point dose-response
How it was run: (§2)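 Gastric cancer lines seeded 5×10^3 cells/well, dosed after 24 h with half-log 12-point compound dilutions (DMSO 0.5% control), then 72 h at 37 °C. Viability by luminescence, normalized to DMSO; AUC by trapezoidal method, averaged over repeats.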

[3] = tested on: KATO3; assay: as above; conditions: KATO3 cells, 72 hours; for area under the viability curve (AUC), normalized: 12-point dose-response
How it was run: as §2

[4] = tested on: MKN1; assay: as above; conditions: MKN1 cells, 72 hours; for area under the viability curve (AUC), normalized: 12-point dose-response
How it was run: as §2

[5] = tested on: MKN28; assay: as above; conditions: MKN28 cells, 72 hours; for area under the viability curve (AUC), normalized: 12-point dose-response
How it was run: as §2

[6] = tested on: MKN45; assay: as above; conditions: 72 hours; for area under the viability curve (AUC), normalized: MKN45 cells, 12-point dose-response
How it was run: as §1

[7] = tested on: MKN74; assay: as above; conditions: MKN74 cells, 72 hours; for area under the viability curve (AUC), normalized: 12-point dose-response
How it was run: as §1

[8] = tested on: NCC19; assay: as above; conditions: NCC19 cells, 72 hours; for area under the viability curve (AUC), normalized: 12-point dose-response
How it was run: as §2

[9] = tested on: NCC20; assay: as above; conditions: NCC20 cells, 72 hours; for area under the viability curve (AUC), normalized: 12-point dose-response
How it was run: as §2

[10] = tested on: NCC24; assay: as above; conditions: NCC24 cells, 72 hours; for area under the viability curve (AUC), normalized: 12-point dose-response
How it was run: as §2

[11] = tested on: NCC59; assay: as above; conditions: NCC59 cells, 72 hours; for area under the viability curve (AUC), normalized: 12-point dose-response
How it was run: as §2

[12] = tested on: NCI_N87; assay: as above; conditions: NCI_N87 cells, 72 hours; for area under the viability curve (AUC), normalized: 12-point dose-response
How it was run: as §2

[13] = tested on: OCUM1; assay: as above; conditions: OCUM1 cells, 72 hours; for area under the viability curve (AUC), normalized: 12-point dose-response
How it was run: as §2

[14] = tested on: SK4; assay: as above; conditions: 72 hours; for area under the viability curve (AUC), normalized: SK4 cells, 12-point dose-response
How it was run: as §2

[15] = tested on: SNU16; assay: as above; conditions: SNU16 cells, 72 hours; for area under the viability curve (AUC), normalized: 12-point dose-response
How it was run: as §2

[16] = tested on: SNU1750; assay: as above; conditions: 72 hours; for area under the viability curve (AUC), normalized: SNU1750 cells, 12-point dose-response
How it was run: as §2

[17] = tested on: SNU1967; assay: as above; conditions: SNU1967 cells, 72 hours; for area under the viability curve (AUC), normalized: 12-point dose-response
How it was run: as §2

[18] = tested on: SNU1; assay: as above; conditions: SNU1 cells, 72 hours; for area under the viability curve (AUC), normalized: 12-point dose-response
How it was run: as §2

[19] = tested on: SNU216; assay: as above; conditions: 72 hours; for area under the viability curve (AUC), normalized: SNU216 cells, 12-point dose-response
How it was run: as §1

[20] = tested on: SNU484; assay: as above; conditions: 72 hours; for area under the viability curve (AUC), normalized: SNU484 cells, 12-point dose-response
How it was run: as §2

[21] = tested on: SNU601; assay: as above; conditions: SNU601 cells, 72 hours; for area under the viability curve (AUC), normalized: 12-point dose-response
How it was run: as §2

[22] = tested on: SNU620; assay: as above; conditions: SNU620 cells, 72 hours; for area under the viability curve (AUC), normalized: 12-point dose-response
How it was run: as §2

[23] = tested on: SNU638; assay: as above; conditions: SNU638 cells, 72 hours; for area under the viability curve (AUC), normalized: 12-point dose-response
How it was run: as §2

[24] = tested on: SNU668; assay: as above; conditions: 72 hours; for area under the viability curve (AUC), normalized: SNU668 cells, 12-point dose-response
How it was run: as §2

[25] = tested on: SNU719; assay: as above; conditions: SNU719 cells, 72 hours; for area under the viability curve (AUC), normalized: 12-point dose-response
How it was run: as §1

[26] = tested on: YCC11; assay: as above; conditions: 72 hours; for area under the viability curve (AUC), normalized: YCC11 cells, 12-point dose-response
How it was run: as §2

[27] = tested on: YCC2; assay: as above; conditions: YCC2 cells, 72 hours; for area under the viability curve (AUC), normalized: 12-point dose-response
How it was run: as §2

[28] = tested on: YCC3; assay: as above; conditions: YCC3 cells, 72 hours; for area under the viability curve (AUC), normalized: 12-point dose-response
How it was run: as §2

[29] = tested on: FU97; assay: as above; set-up: Average Area Under the Viability Curve (AUC), AUC norm value: scale not given here; conditions: FU97 cells, 72 hours; for area under the viability curve (AUC), normalized: 12-point dose-response
How it was run: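 Trapezoidal AUC of a 12-point, DMSO-normalized dose-response curve. Luminescent viability was measured after 72 h of exposure at 37° C to half-log serial dilutions (0.5% DMSO control), dosed 24 h after plating FU97 cells at 5×10^3 per well.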

[30] = tested on: non-SEM-type gastric cancer cell line; assay: Cell viability drug screen, AUC summary over non-SEM-type lines; conditions: in the non-SEM-type gastric cancer cell line

SMILES: COC(=O)Nc1nc2ccc(Sc3ccccc3)cc2[nH]1 [Fenbendazole]
- area under the viability curve (AUC), normalized [1]: −1.16
- area under the viability curve (AUC), normalized [2]: 0.5728
- area under the viability curve (AUC), normalized [3]: 2.344
- area under the viability curve (AUC), normalized [4]: −0.0568
- area under the viability curve (AUC), normalized [5]: −0.7877
- area under the viability curve (AUC), normalized [6]: 1.407
- area under the viability curve (AUC), normalized [7]: −0.2802
- area under the viability curve (AUC), normalized [8]: −0.2779
- area under the viability curve (AUC), normalized [9]: −0.5211
- area under the viability curve (AUC), normalized [10]: −0.8488
- area under the viability curve (AUC), normalized [11]: 1.9513
- area under the viability curve (AUC), normalized [12]: −1.124
- area under the viability curve (AUC), normalized [13]: 1.283
- area under the viability curve (AUC), normalized [14]: −0.2953
- area under the viability curve (AUC), normalized [15]: 1.2297
- area under the viability curve (AUC), normalized [16]: 0.2596
- area under the viability curve (AUC), normalized [17]: 0.184
- area under the viability curve (AUC), normalized [18]: 0.1629
- area under the viability curve (AUC), normalized [19]: 1.005
- area under the viability curve (AUC), normalized [20]: −0.08111
- area under the viability curve (AUC), normalized [21]: 0.599
- area under the viability curve (AUC), normalized [22]: −1.425
- area under the viability curve (AUC), normalized [23]: −0.3689
- area under the viability curve (AUC), normalized [24]: 0
- area under the viability curve (AUC), normalized [25]: 3.382
- area under the viability curve (AUC), normalized [26]: −0.7305
- area under the viability curve (AUC), normalized [27]: 0.5695
- area under the viability curve (AUC), normalized [28]: 1.376
- area under the viability curve (AUC), normalized [29]: −1.854
- AUC value [30]: high

SMILES: CCCCCCCCCCCCCCCC[N+](C)(C)CCN(Cc1ccc(OC)cc1)c1ncccn1 [Thonzonium Bromide]
- Average Area Under the Viability Curve (AUC), AUC norm value ([1]; AGS cells (non-SEM subtype)): −0.4105
- Average Area Under the Viability Curve (AUC), AUC norm value ([2]; Hs746T cells (SEM subtype)): 0
- Average Area Under the Viability Curve (AUC), AUC norm value [3]: −0.127
- Average Area Under the Viability Curve (AUC), AUC norm value [4]: −0.2414
- Average Area Under the Viability Curve (AUC), AUC norm value [5]: 0.07021
- Average Area Under the Viability Curve (AUC), AUC norm value ([6]; MKN45 cells (non-SEM subtype)): 0.1213
- Average Area Under the Viability Curve (AUC), AUC norm value [7]: −0.9967
- Average Area Under the Viability Curve (AUC), AUC norm value [8]: 0.2995
- Average Area Under the Viability Curve (AUC), AUC norm value [9]: −0.6042
- Average Area Under the Viability Curve (AUC), AUC norm value [10]: −0.2465
- Average Area Under the Viability Curve (AUC), AUC norm value [11]: 0.6096
- Average Area Under the Viability Curve (AUC), AUC norm value [12]: 0.415
- Average Area Under the Viability Curve (AUC), AUC norm value [13]: 0.2209
- Average Area Under the Viability Curve (AUC), AUC norm value ([14]; SK4 cells (SEM subtype)): −1.033
- Average Area Under the Viability Curve (AUC), AUC norm value [15]: −0.9128
- Average Area Under the Viability Curve (AUC), AUC norm value ([16]; SNU1750 cells (SEM subtype)): 0.06729
- Average Area Under the Viability Curve (AUC), AUC norm value [17]: 0.01501
- Average Area Under the Viability Curve (AUC), AUC norm value [18]: 1.478
- Average Area Under the Viability Curve (AUC), AUC norm value ([19]; SNU216 cells (non-SEM subtype)): 0.2737
- Average Area Under the Viability Curve (AUC), AUC norm value ([20]; SNU484 cells (SEM subtype)): −0.9082
- Average Area Under the Viability Curve (AUC), AUC norm value [21]: 2.228
- Average Area Under the Viability Curve (AUC), AUC norm value [22]: −0.2404
- Average Area Under the Viability Curve (AUC), AUC norm value [23]: −0.4973
- Average Area Under the Viability Curve (AUC), AUC norm value ([24]; SNU668 cells (SEM subtype)): 0.3151
- Average Area Under the Viability Curve (AUC), AUC norm value [25]: 1.9
- Average Area Under the Viability Curve (AUC), AUC norm value ([26]; YCC11 cells (SEM subtype)): −0.8304
- Average Area Under the Viability Curve (AUC), AUC norm value [27]: −0.4255
- Average Area Under the Viability Curve (AUC), AUC norm value [28]: 0.6163
- Average Area Under the Viability Curve (AUC), AUC norm value [29]: −0.03008
- AUC value [30]: high

SMILES: Nc1cc(C(F)(F)F)c(-c2cc(N3CCOCC3)nc(N3CCOCC3)n2)cn1 [BKM120]
- area under the viability curve (AUC), normalized [1]: −1.094
- area under the viability curve (AUC), normalized [2]: 0
- area under the viability curve (AUC), normalized [3]: 2.449
- area under the viability curve (AUC), normalized [4]: −0.1827
- area under the viability curve (AUC), normalized [5]: −0.0925
- area under the viability curve (AUC), normalized [6]: 1.074
- area under the viability curve (AUC), normalized [7]: −0.05182
- area under the viability curve (AUC), normalized [8]: 0.6866
- area under the viability curve (AUC), normalized [9]: −0.07502
- area under the viability curve (AUC), normalized [10]: −0.4391
- area under the viability curve (AUC), normalized [11]: 1.23
- area under the viability curve (AUC), normalized [12]: −0.38
- area under the viability curve (AUC), normalized [13]: 0.7561
- area under the viability curve (AUC), normalized [14]: −1.247
- area under the viability curve (AUC), normalized [15]: −0.3076
- area under the viability curve (AUC), normalized [16]: −0.4392
- area under the viability curve (AUC), normalized [17]: 0.676
- area under the viability curve (AUC), normalized [18]: 0.2556
- area under the viability curve (AUC), normalized [19]: 0.1342
- area under the viability curve (AUC), normalized [20]: −0.475
- area under the viability curve (AUC), normalized [21]: 0.9711
- area under the viability curve (AUC), normalized [22]: −0.08823
- area under the viability curve (AUC), normalized [23]: 0.01503
- area under the viability curve (AUC), normalized [24]: 0.2688
- area under the viability curve (AUC), normalized [25]: 3.314
- area under the viability curve (AUC), normalized [26]: −1.147
- area under the viability curve (AUC), normalized [27]: 0.7169
- area under the viability curve (AUC), normalized [28]: 1.085
- area under the viability curve (AUC), normalized [29]: −1.3007
- AUC value [30]: high
